This is an account of results in patent US12371453B2, “Polypeptide having antibacterial activity, composition for preventing or treating sepsis comprising same, and antibacterial composition” (priority 2019, dated 2025).

The test system of assay [1] is Acinetobacter baumannii (ATCC 19606). The experiment in a line: microbe, parasite or virus in culture. Conditions: Acinetobacter baumannii. The protocol: (§1) To compare the antibacterial activity between the four commercially available antibiotics (ampicillin, gentamicin, levofloxacin and imipenem) and the allD FP13-NH2 (AcOH) peptide, an antibacterial activity test was performed to measure the minimum inhibitory concentrations (MIC50 and MIC80) for gram-negative and gram-positive standard strains (Escherichia coli DH5α, Escherichia coli K1, Acinetobacter baumannii, Pseudomonas aeruginosa, Salmonella enteritidis, Salmonella typhimurium, and Klebsiella pneumoniae).
(§2) More specifically, 100 μL of a medium was dispensed into each well of a 96-well plate, and in the first column, an antibiotic and a peptide in 200 μL of the medium were dispensed. 1/2 serial dilution was performed from columns 1 to 11, and gram-negative and gram-positive bacteria which had been previously cultured were diluted (OD600 nm value in dilution: approximately 0.0025) and dispensed into each well. The plate was incubated in a 37° C. incubator for 4 hours, and measured at OD600 nm.

Assay [2] concerns Escherichia coli DH5α (ATCC PTA-4750). The experiment in a line: microbe, parasite or virus in culture. Conditions: Escherichia coli, 4 h. The protocol: as §1, §2
In a further assay the test system is Escherichia coli K1. The assay is described as follows: microbe, parasite or virus in culture. The conditions noted are these: Escherichia coli. The protocol:
as §1, §2

For assay [3], the system named is Klebiella pneumoniae (ATCC 13883). The experiment in a line: microbe, parasite or virus in culture. Conditions: Klebsiella pneumoniae. The protocol:
as §1, §2

In assay [4] the test system is Pseudomanas aeruginosa PAO1 (ATCC 47085D-5). The assay is described as follows: microbe, parasite or virus in culture. The conditions noted are these: Pseudomonas aeruginosa. The protocol: as §1, §2
In assay [5] the test system is Salmonela enteritidis (ATCC 13076). The assay is described as follows: microbe, parasite or virus in culture. Conditions: Salmonella enterica. The protocol: as §1, §2
Assay [6] deals with Salmonela typhimurium (ATCC 53648). The assay is described as follows: microbe, parasite or virus in culture. The conditions noted are these: Salmonella enterica. The protocol:
as §1, §2

The test system of another assay is CR-Klebsiella pneumoniae. The conditions noted are these: CR-K. pneumoniae. The protocol: (§3) The antibacterial activity was evaluated according to an antibacterial activity test method for measuring the minimum inhibitory concentration 50 (MIC50; the minimal concentration that kills 50% of bacteria).
as §2, with “11” for “11,”, “five types of antibiotic-resistant” for “gram-negative and gram-positive”, “bacteria (ESBL-resistant E. coli, carbapenem-resistant A. baumannii, carbapenem-resistant Klebsiella pneumoniae, carbapenem-resistant Pseudomonas aeruginosa, colistin-resistant Acinetobactor baumannii),” for “bacteria”, “cultured,” for “cultured”

Assay [7] has as its system Colistin resistant AB (Acinetobactor baumannii). The conditions noted are these: colistin resistant A. baumannii. The protocol:
as §3
as §2, with “11” for “11,”, “five types of antibiotic-resistant” for “gram-negative and gram-positive”, “bacteria (ESBL-resistant E. coli, carbapenem-resistant A. baumannii, carbapenem-resistant Klebsiella pneumoniae, carbapenem-resistant Pseudomonas aeruginosa, colistin-resistant Acinetobactor baumannii),” for “bacteria”, “cultured,” for “cultured”

The test system of the next assay is ESBL (E. coli). The conditions noted are these: ESBL E. coli. The protocol:
as §3
as §2, with “11” for “11,”, “five types of antibiotic-resistant” for “gram-negative and gram-positive”, “bacteria (ESBL-resistant E. coli, carbapenem-resistant A. baumannii, carbapenem-resistant Klebsiella pneumoniae, carbapenem-resistant Pseudomonas aeruginosa, colistin-resistant Acinetobactor baumannii),” for “bacteria”, “cultured,” for “cultured”

The test system of assay [8] is Carbapenem resistant (CR)-Acinetobactor baumannii. The experiment in a line: organism not typed. The conditions noted are these: CR-A. baumannii. The protocol: as §3
as §2, with “11” for “11,”, “five types of antibiotic-resistant” for “gram-negative and gram-positive”, “bacteria (ESBL-resistant E. coli, carbapenem-resistant A. baumannii, carbapenem-resistant Klebsiella pneumoniae, carbapenem-resistant Pseudomonas aeruginosa, colistin-resistant Acinetobactor baumannii),” for “bacteria”, “cultured,” for “cultured”

Where two headings read alike, the source gives them in different places.

Turning to `C[C@@H](O)[C@H]1C(=O)N2C(C(=O)O)=C(SCCN=CN)C[C@H]12` [Imipenem, imipenem], the MIC in assay [1] (ATCC19606, read-out: MIC (μg/ml) 50%) is < 8 µg/mL; in [1] (ATCC19606, read-out: MIC (μg/ml) 80%) it was < 15 µg/mL; in assay [2] (read-out: MIC (μg/ml) 50%) it was < 4 µg/mL; in [2] (read-out: MIC (μg/ml) 80%), < 8 µg/mL; with Escherichia coli K1 (K1, read-out: MIC (μg/ml) 50%), < 0.5 µg/mL; in the assay on Escherichia coli K1 (K1, read-out: MIC (μg/ml) 80%), < 1 µg/mL. For the same compound, the MIC was < 2 µg/mL in [3] (ATCC13883, read-out: MIC (μg/ml) 50%); < 8 µg/mL in assay [3] (ATCC13883, read-out: MIC (μg/ml) 80%); < 32 µg/mL in assay [4] (PAO1, read-out: MIC (μg/ml) 50%); < 64 µg/mL in [4] (PAO1, read-out: MIC (μg/ml) 80%); < 4 µg/mL in assay [5] (read-out: MIC (μg/ml) 50%); < 8 µg/mL in [5] (read-out: MIC (μg/ml) 80%). Besides, the MIC was < 4 µg/mL in assay [6] (read-out: MIC (μg/ml) 50%) and < 8 µg/mL in assay [6] (read-out: MIC (μg/ml) 80%). Further, the “MIC50, CR-Klebsiella pneumoniae” value against CR-Klebsiella pneumoniae is recorded as “No effect”. The “MIC50, Colistin resistant AB” value in assay [7] is recorded as “No effect”. For the same compound, the “MIC50, ESBL (E. coli)” value in the assay with ESBL (E. coli) is given as “No effect”. In addition, in assay [8], the “MIC50, Carbapenem resistant (CR)-Acinetobactor baumannii” value is reported as “No effect”.
